For orientation: IC50 means the point on the concentration scale where inhibition reaches its midpoint.

Consider eight compounds from patent US10457707B2, “Substituted urea depsipeptide analogs as activators of the CLPP endopeptidase” (priority 2015, dated 2019).

Format in all cases: cell-based
Series [1] relates to Bacillus subtilis, ATCC 23857. The experiment in a line: Minimal inhibitory concentration assay (microbroth dilution). Put shortly:
(§1)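 Compound is serially diluted two-fold in the appropriate broth, and bacterial inoculum at about 10^5 cfu/mL is added so the highest final concentration is 200 μM. Plates stay overnight at 37 °C under aerobic conditions before growth is scored by eye.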
(In broth dilution the organism is exposed to a series of concentrations in liquid medium.)

Series [2] relates to Staphylococcus aureus, NRS70. The series is described as above. The gist of the method: as §1
Series [3] deals with Staphylococcus aureus, ATCC 29213. Described as above. Conditions: ATCC29213, read-out: Minimal Inhibitory Concentrations S. aureus ATCC 29213. Put shortly:
as §1

For series [4], the system named is Streptococcus pyogenes, ATCC 700294. Described as above. The gist of the method:
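Plates with two-fold compound dilution series in broth were incubated overnight, aerobically, at 37° C, following CLSI microdilution guidance.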

Series [5] is described as follows: Cytotoxicity assay (CellTiter-Glo cell viability, 72 hours). Conditions: African green monkey. Put shortly: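 Viability measured by CellTiter-Glo luminescence after 72-hour compound exposure (serial dilutions, DMSO control) of Vero monolayers seeded at 5000 cells/well in 10% FBS DMEM. IC50 values are the range of two biologically independent experiments, each run in duplicate.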

The mark [6] stands for this setting: Staphylococcus aureus, NRS70; read-out: Minimal Inhibitory Concentrations S. aureus NRS70.
The mark [7] stands for this setting: Bacillus subtilis, ATCC23857, read-out: Minimal Inhibitory Concentrations B. subtilis ATCC 23857.
Where [8] appears, read: Staphylococcus aureus, NRS70, read-out: Minimal Inhibitory Concentrations S. aureus NRS70.
The mark [9] stands for this setting: Streptococcus pyogenes, ATCC700294, read-out: Minimal Inhibitory Concentrations S. pyogenes ATCC 700294.
The mark [10] stands for this setting: Vero cells, 72 hours, growth inhibition, read-out: Cytotoxicity IC50.

In brackets after ≈: the same amount, converted by molar mass. Read-outs that look alike come from different tables or passages of the source. *1 amine or outer side, *2 acyl side, *3 side chain or, on linkers, in order; H or OH if unused. Where a SMILES comes first, the peptide text is derived from it. Bridges are numbered along the chain shown (N, C = ends). [ ]: non-standard residue; d: D form. The star is where a group is joined. Phe(3,5-F2) = N[C@@H](Cc1cc(F)cc(F)c1)C(=O)O; Morpholine(3S-CO) = O=C(O)[C@@H]1COCCN1; Pro(4R-Me) = C[C@H]1CN[C@H](C(=O)O)C1; NH(3,4-Me2-phenyl) = Cc1ccc(N*)cc1C; Hyp = O=C(O)[C@@H]1C[C@@H](O)CN1; NH(4-Et-phenyl) = CCc1ccc(N*)cc1; Heptenoyl(2E) = CCCC/C=C/C(=O)*; aThr = C[C@H](O)[C@H](N)C(=O)O; Pip = O=C(O)[C@@H]1CCCCN1; X4 = c1cc2c(cc1N*)CCC2; X8 = c1cc2c(cc1N*)CCO2; X6 = Cc1cc(C)cc(N*)c1; CO = O=C([*:1])[*:2]; X7 = CC/C=C/C(=O)* Some results are limits rather than exact numbers.

For the compound `CCc1ccc(NC(=O)N[C@@H](Cc2cc(F)cc(F)c2)C(=O)N[C@@H]2C(=O)N3C[C@H](O)C[C@H]3C(=O)N3CCCC[C@H]3C(=O)N[C@@H](C)C(=O)N3C[C@H](C)C[C@H]3C(=O)O[C@H]2C)cc1` [Compound 211, (S)-3-(3,5-difluorophenyl)-2-(3-(4-ethylphenyl)ureido)-N-((2R,6S,8aS,14aS,16R,20S,21S,23aS)-16-hydroxy-2,6,21-trimethyl-5,8,14,19,23-pentaoxooctadecahydro-1H,5H,14H,19H-pyrido[2,1-i]dipyrrolo[2,1-c:2′,1′-l][1]oxa[4,7,10,13]tetraazacyclohexadecin-20-yl)propanamide] ({NH(4-Et-phenyl)-CO}-[Phe(3,5-F2)][aThr][Hyp][Pip]A[Pro(4R-Me)]; ester 2-C), the MIC is 0.8 µM (≈ 0.67 µg/mL) in series [1] (Bacillus subtilis, ATCC23857; read-out: Minimal Inhibitory Concentrations B. subtilis ATCC 23857); 0.02 µM (≈ 0.0168 µg/mL) in series [2] (setting [6]); 0.04 µM (≈ 0.0335 µg/mL) in series [3]; below 0.2 µM in series [4] (Streptococcus pyogenes, ATCC700294; read-out: Minimal Inhibitory Concentrations S. pyogenes ATCC 700294).

With `Cc1ccc(NC(=O)N[C@@H](Cc2cc(F)cc(F)c2)C(=O)N[C@@H]2C(=O)N3C[C@H](O)C[C@H]3C(=O)N3CCCC[C@H]3C(=O)N[C@@H](C)C(=O)N3C[C@H](C)C[C@H]3C(=O)O[C@H]2C)cc1C` [Compound 212, (S)-3-(3,5-difluorophenyl)-2-(3-(3,4-dimethylphenyl)ureido)-N-((2R,6S,8aS,14aS,16R,20S,21S,23aS)-16-hydroxy-2,6,21-trimethyl-5,8,14,19,23-pentaoxooctadecahydro-1H,5H,14H,19H-pyrido[2,1-i]dipyrrolo[2,1-c:2′,1′-l][1]oxa[4,7,10,13]tetraazacyclohexadecin-20-yl)propanamide] ({NH(3,4-Me2-phenyl)-CO}-[Phe(3,5-F2)][aThr][Hyp][Pip]A[Pro(4R-Me)]; ester 2-C), the MIC is below 0.2 µM in series [1] (setting [7]), 0.002 µM (≈ 0.00168 µg/mL) in series [2] (setting [8]), 0.005 µM (≈ 0.00419 µg/mL) in series [3] and below 0.2 µM in series [4] (setting [9]).

On to `Cc1ccc(NC(=O)N[C@@H](Cc2cc(F)cc(F)c2)C(=O)N[C@@H]2C(=O)N3C[C@H](O)C[C@H]3C(=O)N3CCOC[C@H]3C(=O)N[C@@H](C)C(=O)N3C[C@H](C)C[C@H]3C(=O)O[C@H]2C)cc1C` [Compound 215, (S)-3-(3,5-difluorophenyl)-2-(3-(3,4-dimethylphenyl)ureido)-N-((6aS,8R,12S,13S,15aS,17R,21S,23aS)-8-hydroxy-13,17,21-trimethyl-6,11,15,20,23-pentaoxooctadecahydro-6H,11H,15H-[1,4]oxazino[3,4-i]dipyrrolo[2,1-c:2′,1′-l][1]oxa[4,7,10,13]tetraazacyclohexadecin-12-yl)propanamide] ({NH(3,4-Me2-phenyl)-CO}-[Phe(3,5-F2)][aThr][Hyp][Morpholine(3S-CO)]A[Pro(4R-Me)]; ester 2-C), for which the MIC is 3.1 µM (≈ 2.6 µg/mL) in series [1] (setting [7]), 0.8 µM (≈ 0.672 µg/mL) in series [2] (setting [8]), 0.4 µM (≈ 0.336 µg/mL) in series [3] and below 0.2 µM in series [4] (setting [9]).

Regarding `CC/C=C/C(=O)N[C@@H](Cc1cc(F)cc(F)c1)C(=O)N[C@@H]1C(=O)N2C[C@H](O)C[C@H]2C(=O)N2CCCC[C@H]2C(=O)N[C@@H](C)C(=O)N2C[C@H](C)C[C@H]2C(=O)O[C@H]1C` [Compound 300] (X7-[Phe(3,5-F2)][aThr][Hyp][Pip]A[Pro(4R-Me)]; ester 2-C), the half-inhibitory concentration (IC50) at 72 h in series [5] (setting [10]) is above 100 µM. In addition, the MIC in series [2] (setting [8]) turned out to be 2.5 µM (≈ 1.93 µg/mL); in series [3] it was 1.9 µM (≈ 1.47 µg/mL).

Turning to `CCCC/C=C/C(=O)N[C@@H](Cc1cc(F)cc(F)c1)C(=O)N[C@@H]1C(=O)N2C[C@H](O)C[C@H]2C(=O)N2CCCC[C@H]2C(=O)N[C@@H](C)C(=O)N2C[C@H](C)C[C@H]2C(=O)O[C@H]1C` [Compound 301, (E)-N—((S)-3-(3,5-difluorophenyl)-1-(((2R,6S,8aS,14aS,16R,20S,21S,23aS)-16-hydroxy-2,6,21-trimethyl-5,8,14,19,23-pentaoxooctadecahydro-1H,5H,14H,19H-pyrido[2,1-i]dipyrrolo[2,1-c:2′,1′-l][1]oxa[4,7,10,13]tetraazacyclohexadecin-20-yl)amino)-1-oxopropan-2-yl)hept-2-enamide] ({Heptenoyl(2E)}-[Phe(3,5-F2)][aThr][Hyp][Pip]A[Pro(4R-Me)]; ester 2-C), the IC50 at 72 h in series [5] (setting [10]) was found to be 61.1 ± 1.7 µM. The MIC in series [2] (setting [8]) and in series [3] was 0.079 µM (≈ 0.0633 µg/mL) throughout.

Regarding `C[C@@H]1C[C@H]2C(=O)O[C@@H](C)[C@H](NC(=O)[C@H](Cc3cc(F)cc(F)c3)NC(=O)Nc3ccc4c(c3)CCC4)C(=O)N3CCC[C@H]3C(=O)N3CCCC[C@H]3C(=O)N[C@@H](C)C(=O)N2C1` [Compound 302, (S)-3-(3,5-difluorophenyl)-2-(3-(2,3-dihydro-1H-INDEN-5-yl)ureido)-N-((2R,6S,8aS,14aS,20S,21S,23aS)-2,6,21-trimethyl-5,8,14,19,23-pentaoxooctadecahydro-1H,5H,14H,19H-pyrido[2,1-i]dipyrrolo[2,1-c:2′,1′-l][1]oxa[4,7,10,13]tetraazacyclohexadecin-20-yl)propanamide] ({X4-CO}-[Phe(3,5-F2)][aThr]P[Pip]A[Pro(4R-Me)]; ester 2-C), the IC50 at 72 h in series [5] (setting [10]) amounted to 13.2 ± 1.1 µM. In addition, the values for the MIC in series [2] (setting [8]) and in series [3] were 0.039 µM (≈ 0.0325 µg/mL) and 0.059 µM (≈ 0.0492 µg/mL), respectively.

Regarding `Cc1cc(C)cc(NC(=O)N[C@@H](Cc2cc(F)cc(F)c2)C(=O)N[C@@H]2C(=O)N3CCC[C@H]3C(=O)N3CCCC[C@H]3C(=O)N[C@@H](C)C(=O)N3C[C@H](C)C[C@H]3C(=O)O[C@H]2C)c1` [Compound 304, (S)-3-(3,5-difluorophenyl)-2-(3-(3,5-dimethylphenyl)ureido)-N-((2R,6S,8aS,14aS,20S,21S,23aS)-2,6,21-trimethyl-5,8,14,19,23-pentaoxooctadecahydro-1H,5H,14H,19H-pyrido[2,1-i]dipyrrolo[2,1-c:2′,1′-l][1]oxa[4,7,10,13]tetraazacyclo-hexadecin-20-yl)propanamide] ({X6-CO}-[Phe(3,5-F2)][aThr]P[Pip]A[Pro(4R-Me)]; ester 2-C), the half-inhibitory concentration (IC50) at 72 h in series [5] worked out at 21.3 ± 1.6 µM. The figures for the MIC in series [2] (setting [6]) and in series [3] were 0.059 µM (≈ 0.0485 µg/mL) and 0.079 µM (≈ 0.0649 µg/mL), respectively.

In the case of `C[C@@H]1C[C@H]2C(=O)O[C@@H](C)[C@H](NC(=O)[C@H](Cc3cc(F)cc(F)c3)NC(=O)Nc3ccc4c(c3)CCO4)C(=O)N3CCC[C@H]3C(=O)N3CCCC[C@H]3C(=O)N[C@@H](C)C(=O)N2C1` [Compound 305, (S)-3-(3,5-difluorophenyl)-2-(3-(2,3-dihydrobenzofuran-5-yl)ureido)-N-((2R,6S,8aS,14aS,20S,21S,23aS)-2,6,21-trimethyl-5,8,14,19,23-pentaoxooctadecahydro-1H,5H,14H,19H-pyrido[2,1-i]dipyrrolo[2,1-c:2′,1′-l][1]oxa[4,7,10,13]tetraazacyclo-hexadecin-20-yl)propanamide] ({X8-CO}-[Phe(3,5-F2)][aThr]P[Pip]A[Pro(4R-Me)]; ester 2-C), the IC50 at 72 h in series [5] (setting [10]) was 39 ± 2.7 µM. The MIC in series [2] (setting [8]) and in series [3] was 0.24 µM (≈ 0.201 µg/mL) each time.
